Measured values from publication PMC3004370, “PI3Kα Inhibitors That Inhibit Metastasis” (Oncotarget, 2010).
Where a name gives a salt, the structure may show the parent alone.

Key:
[1] = target: T1, p110γ (Homo sapiens, UniProt P48736); assay: Biochemical PI3K inhibition assay, p110γ; settings: for IC50: 10 μM ATP, two hours, no regulatory subunit
T1 construct: His-tag; made in house; host or cells: Sf9 insect cells (baculovirus)
Excerpt: (§1) cDNA clones of PIK3CA, PIK3CB and PIK3CG were obtained from Origene (Rockville, MD, USA). PIK3CD was generously provided by Novartis Pharmaceuticals. The cDNA clones were sub-cloned into pFastBac His-Tag (Invitrogen, Carlsbad, CA, USA) and baculovirus clones were generated by the Bac-to-Bac expression system (Invitrogen). p110α, p110β and p110δ were co-expressed in Sf9 insect cells (Invitrogen) with a nSH2-iSH2 fragment of the regulatory subunit p85 comprising AA residues 322 to 600 [4]. p110γ was expressed without a regulatory subunit. Sf9 cells were lysed in a buffer containing 50 mM sodium phosphate, pH 8.0, 400 mM NaCl, 5% glycerol, 1% Triton X-100, 10 mM 2-mercaptoethanol, 1 mM orthovanadate, 10 mM imidazole, and sonicated on ice for 1 minute. Proteins were purified by adding Ni-NTA Superflow beads (Qiagen, Valencia, CA, USA) to the lysate and subsequent rolling for 30 min at 4°C. Beads were washed twice with 50 mM phosphate buffer, pH 8.0, 0.5 M NaCl, 50 mM Imidazole, 2 mM DTT and eluted in the same buffer but with 200 mM imidazole. Purified PI3K's were mixed 1:1 with glycerol and stored at -20°C.
(§2) J-series inhibitors were dissolved, serial diluted in DMSO and deposited into 96 well plates at a final DMSO concentration of 1%. We used a novel assay to determine their potency and selectivity. In brief, micelles of 2.5 μg L-a-Phosphatidylinositol and 2.5 μg 1,2-Diacyl-sn-glycero-3-phospho-L-serine were formed by sonication, mixed with the individual PI3K isoforms and added to the drug dilutions in a reaction buffer containing 10 mM HEPES, 25 mM NaCl, 0.125 μg/μl BSA, and 2 mM BME (final concentrations). Reactions were timed after the addition of 10 μM ATP with 40 μCi/ml γ-32P-ATP (PerkinElmer, Waltham, MA, USA) and 2 mM MgCl2 (all final concentrations). The reactions were terminated after two hours by the addition of 2 N HCl and the lipids extracted with 1:1 MetOH/Chloroform. Radio-labeled phosphatidyl-inositol-3-phosphate in the extracted organic fraction was quantified after the addition of Microscint O (PerkinElmer) using a TopCount 96 well plate scintillation counter (PerkinElmer). IC50 concentrations and inhibition curves were calculated using Prism 5 (GraphPad Software, La Jolla, CA).

[2] = target: T2, p110δ (Homo sapiens, UniProt O00329); assay: Biochemical PI3K inhibition assay, p110δ; settings: for IC50: 10 μM ATP, two hours
T2 construct: His-tag; made in house; host or cells: Sf9 insect cells (baculovirus)
T2 sequence (O00329 whole entry): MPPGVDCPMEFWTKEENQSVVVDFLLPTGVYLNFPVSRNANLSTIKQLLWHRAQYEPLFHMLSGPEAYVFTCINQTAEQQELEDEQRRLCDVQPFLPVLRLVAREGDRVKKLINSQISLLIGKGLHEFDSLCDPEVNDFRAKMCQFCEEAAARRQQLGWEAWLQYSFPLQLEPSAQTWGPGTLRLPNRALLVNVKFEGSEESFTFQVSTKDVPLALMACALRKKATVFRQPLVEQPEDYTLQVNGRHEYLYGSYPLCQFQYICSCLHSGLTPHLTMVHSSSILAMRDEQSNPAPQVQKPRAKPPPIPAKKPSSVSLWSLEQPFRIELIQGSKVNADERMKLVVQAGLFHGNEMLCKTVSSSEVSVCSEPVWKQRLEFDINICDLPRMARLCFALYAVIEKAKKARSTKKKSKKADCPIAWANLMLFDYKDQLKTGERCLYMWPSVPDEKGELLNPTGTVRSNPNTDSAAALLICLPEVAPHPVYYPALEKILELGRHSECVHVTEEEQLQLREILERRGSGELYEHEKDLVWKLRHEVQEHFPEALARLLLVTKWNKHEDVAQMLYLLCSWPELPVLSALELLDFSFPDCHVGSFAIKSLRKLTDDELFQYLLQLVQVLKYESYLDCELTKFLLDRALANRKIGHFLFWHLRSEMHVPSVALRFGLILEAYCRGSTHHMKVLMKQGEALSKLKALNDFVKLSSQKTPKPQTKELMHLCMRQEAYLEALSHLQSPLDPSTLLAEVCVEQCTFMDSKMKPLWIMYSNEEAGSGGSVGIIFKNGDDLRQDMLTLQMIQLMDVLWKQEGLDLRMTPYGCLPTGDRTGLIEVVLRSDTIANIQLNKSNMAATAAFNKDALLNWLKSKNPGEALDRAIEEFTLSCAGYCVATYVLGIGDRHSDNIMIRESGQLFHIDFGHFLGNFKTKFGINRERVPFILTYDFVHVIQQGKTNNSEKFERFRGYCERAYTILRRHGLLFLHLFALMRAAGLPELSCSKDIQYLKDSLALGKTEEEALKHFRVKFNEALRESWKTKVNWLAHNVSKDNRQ
T2 sequence (P27986 322-600 partner limits assumed): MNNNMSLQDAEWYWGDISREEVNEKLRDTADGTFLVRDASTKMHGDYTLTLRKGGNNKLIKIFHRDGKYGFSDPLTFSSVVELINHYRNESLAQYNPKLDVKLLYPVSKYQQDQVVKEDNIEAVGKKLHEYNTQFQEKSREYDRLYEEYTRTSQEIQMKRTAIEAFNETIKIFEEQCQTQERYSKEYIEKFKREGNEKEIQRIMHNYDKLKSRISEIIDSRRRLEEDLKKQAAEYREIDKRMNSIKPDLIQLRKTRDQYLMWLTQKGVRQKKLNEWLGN
Excerpt: as §1, §2

[3] = target: T3, p110β (Homo sapiens, UniProt P42338); assay: Biochemical PI3K inhibition assay, p110β; settings: for IC50: 10 μM ATP, two hours
T3 construct: His-tag; made in house; host or cells: Sf9 insect cells (baculovirus)
T3 sequence (P42338 whole entry): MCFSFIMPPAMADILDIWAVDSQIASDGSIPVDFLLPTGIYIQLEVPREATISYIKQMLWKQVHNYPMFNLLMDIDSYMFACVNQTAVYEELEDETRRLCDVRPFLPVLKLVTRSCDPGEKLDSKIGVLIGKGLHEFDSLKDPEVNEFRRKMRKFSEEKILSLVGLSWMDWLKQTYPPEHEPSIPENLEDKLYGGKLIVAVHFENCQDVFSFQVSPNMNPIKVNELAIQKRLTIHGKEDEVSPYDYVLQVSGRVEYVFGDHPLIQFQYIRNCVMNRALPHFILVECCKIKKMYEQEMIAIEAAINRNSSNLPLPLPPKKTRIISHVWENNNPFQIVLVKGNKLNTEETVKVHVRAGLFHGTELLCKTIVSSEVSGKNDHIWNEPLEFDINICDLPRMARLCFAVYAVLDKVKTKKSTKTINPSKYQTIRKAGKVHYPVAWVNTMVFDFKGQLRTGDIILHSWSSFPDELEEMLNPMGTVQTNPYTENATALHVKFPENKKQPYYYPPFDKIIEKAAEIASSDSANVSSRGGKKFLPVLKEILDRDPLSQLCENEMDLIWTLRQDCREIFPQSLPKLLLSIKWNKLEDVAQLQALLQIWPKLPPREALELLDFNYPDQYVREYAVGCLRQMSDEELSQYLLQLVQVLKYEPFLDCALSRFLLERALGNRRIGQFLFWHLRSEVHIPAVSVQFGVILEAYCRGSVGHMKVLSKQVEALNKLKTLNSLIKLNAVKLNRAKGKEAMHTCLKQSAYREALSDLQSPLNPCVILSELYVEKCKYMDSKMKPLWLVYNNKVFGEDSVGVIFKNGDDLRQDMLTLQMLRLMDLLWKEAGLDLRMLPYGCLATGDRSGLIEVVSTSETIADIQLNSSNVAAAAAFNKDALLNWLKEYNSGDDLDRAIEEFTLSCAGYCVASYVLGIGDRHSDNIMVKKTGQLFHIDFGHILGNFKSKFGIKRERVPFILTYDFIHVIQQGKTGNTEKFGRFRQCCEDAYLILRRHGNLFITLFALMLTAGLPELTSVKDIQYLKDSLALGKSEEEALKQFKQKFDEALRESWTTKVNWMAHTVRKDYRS
T3 sequence (P27986 322-600 partner limits assumed): as the sequence (P27986 322-600 partner limits assumed) above
Excerpt: as §1, §2

[4] = target: T4, p110α (Homo sapiens, UniProt P42336); assay: Biochemical PI3K inhibition assay, p110α; settings: for IC50: 10 μM ATP, two hours; for effect of substitution on PI3Kα potency/selectivity (in words): SAR discussion
T4 construct: His-tag; made in house; host or cells: Sf9 insect cells (baculovirus)
T4 sequence (P42336 whole entry): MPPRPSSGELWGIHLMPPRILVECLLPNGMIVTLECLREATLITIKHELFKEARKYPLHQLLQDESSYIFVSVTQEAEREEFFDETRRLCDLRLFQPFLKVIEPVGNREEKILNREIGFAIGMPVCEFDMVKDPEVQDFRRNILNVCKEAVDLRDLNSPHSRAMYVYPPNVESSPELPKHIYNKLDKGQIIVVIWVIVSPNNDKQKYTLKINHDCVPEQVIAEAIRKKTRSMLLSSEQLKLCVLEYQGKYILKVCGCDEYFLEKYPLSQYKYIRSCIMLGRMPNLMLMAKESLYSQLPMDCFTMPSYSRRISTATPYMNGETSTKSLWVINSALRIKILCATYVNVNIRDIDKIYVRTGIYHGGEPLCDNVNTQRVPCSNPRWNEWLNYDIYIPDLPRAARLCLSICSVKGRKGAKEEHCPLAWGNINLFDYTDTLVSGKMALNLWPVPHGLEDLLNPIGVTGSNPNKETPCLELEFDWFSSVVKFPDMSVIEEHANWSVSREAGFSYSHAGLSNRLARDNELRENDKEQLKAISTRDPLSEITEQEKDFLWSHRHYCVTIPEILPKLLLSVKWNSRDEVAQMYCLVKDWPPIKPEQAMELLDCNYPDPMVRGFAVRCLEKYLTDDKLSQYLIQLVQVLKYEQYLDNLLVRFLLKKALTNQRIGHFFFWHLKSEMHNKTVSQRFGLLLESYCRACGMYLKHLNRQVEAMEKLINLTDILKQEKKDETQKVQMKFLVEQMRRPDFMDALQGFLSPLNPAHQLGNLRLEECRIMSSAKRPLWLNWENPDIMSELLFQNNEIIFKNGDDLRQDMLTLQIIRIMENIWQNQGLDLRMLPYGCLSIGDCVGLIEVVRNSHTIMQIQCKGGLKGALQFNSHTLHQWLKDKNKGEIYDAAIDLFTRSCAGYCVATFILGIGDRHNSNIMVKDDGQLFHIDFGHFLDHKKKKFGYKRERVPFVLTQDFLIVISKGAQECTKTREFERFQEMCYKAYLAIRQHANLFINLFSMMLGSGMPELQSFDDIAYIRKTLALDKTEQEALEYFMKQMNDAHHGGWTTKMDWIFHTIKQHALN
T4 sequence (P27986 322-600 partner limits assumed): as the sequence (P27986 322-600 partner limits assumed) above
Experimental: PIK3CD was generously provided by Novartis Pharmaceuticals. […] Sf9 cells were lysed in a buffer containing 50 mM sodium phosphate, pH 8.0, 400 mM NaCl, 5% glycerol, 1% Triton X-100, 10 mM 2-mercaptoethanol, 1 mM orthovanadate, 10 mM imidazole, and sonicated on ice for 1 minute. Proteins were purified by adding Ni-NTA Superflow beads (Qiagen, Valencia, CA, USA) to the lysate and subsequent rolling for 30 min at 4°C. Beads were washed twice with 50 mM phosphate buffer, pH 8.0, 0.5 M NaCl, 50 mM Imidazole, 2 mM DTT and eluted in the same buffer but with 200 mM imidazole. Purified PI3K's were mixed 1:1 with glycerol and stored at -20°C.
as §2, with “In brief, micelles of 2.5 μg L-a-Phosphatidylinositol and 2.5 μg 1,2-Diacyl-sn-glycero-3-phospho-L-serine were formed by sonication, mixed with the individual PI3K isoforms and added to the drug dilutions in a reaction buffer containing 10 mM HEPES, 25 mM NaCl, 0.125 μg/μl BSA, and 2 mM BME (final concentrations).” left out

T1 sequence (P48736 whole entry): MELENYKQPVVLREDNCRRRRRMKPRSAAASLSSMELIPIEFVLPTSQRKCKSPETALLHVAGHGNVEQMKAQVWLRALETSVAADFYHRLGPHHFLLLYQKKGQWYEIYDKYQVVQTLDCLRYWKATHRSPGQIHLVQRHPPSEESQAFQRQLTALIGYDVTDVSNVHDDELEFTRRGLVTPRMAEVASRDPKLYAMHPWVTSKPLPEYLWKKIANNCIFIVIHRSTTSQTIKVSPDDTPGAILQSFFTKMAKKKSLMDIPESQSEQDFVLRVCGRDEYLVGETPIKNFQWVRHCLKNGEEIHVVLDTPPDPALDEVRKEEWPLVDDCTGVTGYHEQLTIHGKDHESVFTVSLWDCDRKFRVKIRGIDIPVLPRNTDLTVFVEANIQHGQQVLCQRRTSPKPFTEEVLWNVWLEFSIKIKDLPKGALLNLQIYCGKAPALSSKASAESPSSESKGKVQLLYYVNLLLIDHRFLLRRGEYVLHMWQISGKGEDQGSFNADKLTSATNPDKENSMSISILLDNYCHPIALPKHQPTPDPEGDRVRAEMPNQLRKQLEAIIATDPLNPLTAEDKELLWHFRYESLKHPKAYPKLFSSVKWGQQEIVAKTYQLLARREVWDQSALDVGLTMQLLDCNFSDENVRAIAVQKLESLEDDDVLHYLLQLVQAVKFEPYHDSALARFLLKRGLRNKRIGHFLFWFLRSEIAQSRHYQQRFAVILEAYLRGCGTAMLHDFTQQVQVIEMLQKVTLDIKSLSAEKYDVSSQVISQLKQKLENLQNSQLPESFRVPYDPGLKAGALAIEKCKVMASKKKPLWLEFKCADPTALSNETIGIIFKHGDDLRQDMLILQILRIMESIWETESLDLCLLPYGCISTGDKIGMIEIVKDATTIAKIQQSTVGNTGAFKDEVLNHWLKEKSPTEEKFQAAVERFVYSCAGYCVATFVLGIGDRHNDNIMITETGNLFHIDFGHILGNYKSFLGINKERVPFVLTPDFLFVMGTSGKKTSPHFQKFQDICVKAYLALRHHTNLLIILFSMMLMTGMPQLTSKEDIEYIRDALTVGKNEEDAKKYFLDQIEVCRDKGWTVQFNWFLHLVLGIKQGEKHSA

Structure (SMILES) | IC50 [1] [nM] | IC50 [2] [nM] | IC50 [3] [nM] | IC50 [4] [nM] | drop/decrease in inhibitory activity for PI3Kα ([4]; compared to J32) | effect of substitution on PI3Kα potency/selectivity (in words) [4] | increase of inhibitory activity for PI3Kα ([4]; compared to J32) [fold] | selectivity against PI3Kδ ([2]; relative to PI3Kα) [fold] | selectivity against PI3Kβ ([3]; relative to PI3Kα) | selectivity against PI3Kγ ([1]; relative to PI3Kα) [fold]
Cc1ccc([N+](=O)[O-])cc1S(=O)(=O)N(C)/N=C/c1cnc2ccc(Br)cn12 [J27, N'-[(1E)-(6-Bromoimidazo [1,2-a]pyridin-3-yl)methylene]-N,2-dimethyl-5-nitrobenzenesulfonohydrazide hydrochloride, reference compound] | 75 |  |  |  |  |  |  |  |  | 
Cc1ccc([N+](=O)[O-])cc1S(=O)(=O)N(Cc1ccccc1)/N=C/c1cnc2ccc(Br)cn12 [J30] | 3160 | 781 | 6310 | 730 | 6 to 49 fold |  |  |  |  | 
CCN(/N=C/c1cnc2ccc(Br)cn12)S(=O)(=O)c1cccc([N+](=O)[O-])c1 [J37] | 801 | 476 | 3060 | 55 | greater than 3.6 fold |  |  |  |  | 
CCN(/N=C/c1cnc2ccc(Br)cn12)S(=O)(=O)c1ccccc1C [J40] | 180000 | 53000 | 61000 | 20000 | > 1333 fold |  |  |  |  | 
CCN(/N=C/c1cnc2ccc(Br)cn12)S(=O)(=O)c1cc(S(C)(=O)=O)ccc1C [J41] | 253000 | 3550 | 235000 | 23200 |  | impaired potency |  |  |  | 
CCOC(=O)CN(/N=C/c1cnc2ccc(Br)cn12)S(=O)(=O)c1cc([N+](=O)[O-])ccc1C [J43] | 930 | 363 | 1900 | 154 |  | did not increase potency |  |  |  | 
CCN(/N=C/c1cnc2ccc(Br)cn12)S(=O)(=O)c1cc(N)ccc1C [J44] | 30000 | 28000 | 21000 | 4400 |  | impaired potency |  |  |  | 
CCN(/N=C/c1cnc2ccc(Br)cn12)C(=O)c1cc([N+](=O)[O-])ccc1C [J45] | 132 | 16 | 75 | 20 |  | decreased selectivity for the latter |  |  |  | 
Cc1ccc([N+](=O)[O-])cc1S(=O)(=O)N(CC(C)C)/N=C/c1cnc2ccc(Br)cn12 [J46] | 1750 | 485 | 2970 | 309 | 6 to 49 fold |  |  |  |  | 
Cc1ccc([N+](=O)[O-])cc1S(=O)(=O)N(CCC#N)/N=C/c1cnc2ccc(Br)cn12 [J47] | 192 | 169 | 149 | 25 |  | did not increase potency |  |  |  | 
Cc1ccc([N+](=O)[O-])cc1S(=O)(=O)N(/N=C/c1cnc2ccc(Br)cn12)C(C)C [J55] | 3340 | 760 | 2420 | 93 | 6 to 49 fold |  |  |  |  | 
CCN(/N=C/c1cnc2ccc(Br)cn12)S(=O)(=O)c1cc(C(=O)O)ccc1C [J100] | 5120 | 173 | 2000 | 121 |  | impaired potency |  |  |  | 
CCN(/N=C/c1cnc2ccc(Br)cn12)S(=O)(=O)c1cc([N+](=O)[O-])ccc1Cl [J101] | 812 | 266 | 936 | 22 |  | maintain potency and isoform selectivity |  |  |  | 
CCN(/N=C/c1cnc2ccc(Br)cn12)S(=O)(=O)c1cc([N+](=O)[O-])c(F)cc1C [J120] | 1800 | 470 | 1900 | 24 |  | did not impact the inhibitory activity for PI3Kα substantially |  |  |  | 
CCN(/N=C/c1cnc2ccc(Br)cn12)S(=O)(=O)c1cc(C(N)=O)ccc1Cl [J125] | 1000 | 38 | 600 | 76 |  | impaired potency |  |  |  | 
CCN(/N=C/c1cnc2ccc(Br)cn12)S(=O)(=O)c1cc([N+](=O)[O-])c(O)cc1C [J129] | 150 | 66 | 510 | 20 |  | did not impact the inhibitory activity for PI3Kα substantially |  |  |  | 
CCN(/N=C/c1cnc2ccc(Br)cn12)S(=O)(=O)c1cc([N+](=O)[O-])c(NCCOC)cc1C [J157] | 1000 | 430 | 3000 | 24 |  | did not impact the inhibitory activity for PI3Kα substantially |  |  |  | 
CCN(/N=C/c1cnc2ccc(Br)cn12)S(=O)(=O)c1cc([N+](=O)[O-])c(NCCOCCO)cc1C [J158] | 200 | 440 | 3500 | 17 |  | did not impact the inhibitory activity for PI3Kα substantially |  |  |  | 
CCN(/N=C/c1cnc2ccc(Br)cn12)S(=O)(=O)c1cc([N+](=O)[O-])c(NCC(=O)O)cc1C [J159] | 32 | 348 | 1880 | 4 |  |  | 3.8 |  |  | 
CCN(/N=C/c1cnc2ccc(Br)cn12)S(=O)(=O)c1cc([N+](=O)[O-])c(NC(C)C(=O)O)cc1C (stereo not drawn) [J160] | 140 | 230 | 8200 | 11 |  |  |  |  |  | 
CCN(/N=C/c1cnc2ccc(Br)cn12)S(=O)(=O)c1cc([N+](=O)[O-])c(NCC(=O)OC)cc1C [J161] | 940 | 16000 |  | 33 |  | did not impact the inhibitory activity for PI3Kα substantially |  |  |  | 
CCN(/N=C/c1cnc2ccc(Br)cn12)S(=O)(=O)c1cc([N+](=O)[O-])c(NCCO)cc1C [J162] | 210 | 400 | 2400 | 25 |  | did not impact the inhibitory activity for PI3Kα substantially |  |  |  | 
CCN(/N=C/c1cnc2ccc(Br)cn12)S(=O)(=O)c1cc([N+](=O)[O-])c(NCC(N)=O)cc1C [J163] | 74 | 130 | 2100 | 14 |  | did not impact the inhibitory activity for PI3Kα substantially |  |  |  | 
CCN(/N=C/c1cnc2ccc(Br)cn12)S(=O)(=O)c1cc([N+](=O)[O-])c(NCC(=O)NC(Cc2ccccc2)C(=O)O)cc1C (stereo not drawn) [J171] | 1150 | 1960 | 12800 | 19 |  | retained nanomolar potencies |  | 100 | ~ 670 fold | 60
